Legend:
MCF-7 cells = experiment: Growth inhibition of siRNA-transfected MCF-7 cells, SYBR Green I DNA content; format: cell-based, human; conditions: 10 nM siRNA; standardized against control siRNA
Description: A549 cells (human lung cancer cell line; ATCC No. CCL-185), SK-MeI-5 cells (human melanoma cell line; ATCC No. HTB-70), MCF-7 cells (human adenocarcinoma cell line; ATCC No. HTB-22), HCT-116 cells (colorectal carcinoma; ATCC CCL-247) and HCT-116 p53 null cells (derived from ATCC No. CCL-247; Bunz et al., Science 282:1497-1501, 1998) were cultured in RPMI 1640 medium with 10% v/v heat-inactivated fetal calf serum (FCS). Cells were seeded at a density of 5×10^4 cells/cm^2 in multi-well tissue culture plates. […] The cellular DNA content was measured using a SYBR Green I-based fluorometric assay at 24, 48, 72 and 96 hours after transfection (120 hours for the MCF-7 cells), as follows. […]
The following day, cell lysates were mixed thoroughly, and DNA fluorescence was measured with a Wallac Victor^2 plate reader (Turku, Finland) set at an excitation frequency of 485 nm and measuring emission at 535 nm.
siRNA-mediated RNAi was also determined on a panel of different cell lines. A549, SK-MeI-5, wt HCT-116, HCT-116−/−p53 and MCF-7 cells were transfected with 10 nM siRNAs targeting YBX-1 and growth inhibition determined as described above. […]

YBX1 (p47) and p37 = experiment: YBX1 protein level by Western blotting in A549 cells; format: cell-based, human; conditions: 10 nM siRNA; 24 h post-transfection; compared with control siRNA
Description: Cell lysates were prepared from A549 cells 24 h post-transfection with 10 nM YBX1-specific siRNA (SEQ ID NO: 4982 (DNA), and SEQ ID NO: 5277 (RNA) was labeled 94; SEQ ID NO: 4983 (DNA), and SEQ ID NO: 5278 (RNA) was labeled 95) or control siRNA (SEQ ID NO: 4804 (DNA), and SEQ ID NO: 5301 (RNA); labeled 81). Following Western blotting onto Immobilon-P PVDF filer (Millipore, Bedford Mass.), membranes were probed with a goat anti-human polyclonal antibody specific for YBX1 (AbCam plc, Cambridge, UK), at a concentration of […]. HRP-conjugated donkey anti-goat IgG ([…]; Santa Cruz) was used as a secondary antibody, and signal was detected with an ECL Plus Western blotting Detection System (GE Healthcare, UK) using a Typhoon Scanner (Molecular Dynamics, GE Healthcare, UK).

Substance | growth inhibition, MCF7 cells (MCF-7 cells) | YBX1 (p47) and p37 protein levels (YBX1 (p47) and p37)
SEQ ID NO: 4982: siRNA targeting YBX1 (chain 1 TTTGCTGGTAATTGCGTGGAGGACC; chain 2 UUUGCUGGUAAUUGCGUGGAGGACC; chemistry not given here; one strand in two spellings) | ++ (At least 50% inhibition) | reduction in YBX1 (p47) and p37 protein levels
SEQ ID NO: 4983: siRNA targeting YBX1 (chain 1 TACTGTGGTCGACGCCCATAGGGTC; chain 2 UACUGUGGUCGACGCCCAUAGGGUC; chemistry not given here; one strand in two spellings) | – | reduction in YBX1 (p47) and p37 protein levels
